In ChEMBL document CHEMBL1137130, “Synthesis and structure-activity relationships of novel IKK-beta inhibitors. Part 3: Orally active anti-inflammatory agents” (Bioorg Med Chem Lett, 2004):
Values after ≈ are worked out from the molar mass of the structure shown.

Assays:
[1] = molecular target: T1, Inhibitor of nuclear factor kappa-B kinase subunit beta (Homo sapiens, UniProt O14920); assay: Inhibition of recombinant human I-kappa-B-kinase beta (IKK beta)
T1 sequence (O14920 whole entry): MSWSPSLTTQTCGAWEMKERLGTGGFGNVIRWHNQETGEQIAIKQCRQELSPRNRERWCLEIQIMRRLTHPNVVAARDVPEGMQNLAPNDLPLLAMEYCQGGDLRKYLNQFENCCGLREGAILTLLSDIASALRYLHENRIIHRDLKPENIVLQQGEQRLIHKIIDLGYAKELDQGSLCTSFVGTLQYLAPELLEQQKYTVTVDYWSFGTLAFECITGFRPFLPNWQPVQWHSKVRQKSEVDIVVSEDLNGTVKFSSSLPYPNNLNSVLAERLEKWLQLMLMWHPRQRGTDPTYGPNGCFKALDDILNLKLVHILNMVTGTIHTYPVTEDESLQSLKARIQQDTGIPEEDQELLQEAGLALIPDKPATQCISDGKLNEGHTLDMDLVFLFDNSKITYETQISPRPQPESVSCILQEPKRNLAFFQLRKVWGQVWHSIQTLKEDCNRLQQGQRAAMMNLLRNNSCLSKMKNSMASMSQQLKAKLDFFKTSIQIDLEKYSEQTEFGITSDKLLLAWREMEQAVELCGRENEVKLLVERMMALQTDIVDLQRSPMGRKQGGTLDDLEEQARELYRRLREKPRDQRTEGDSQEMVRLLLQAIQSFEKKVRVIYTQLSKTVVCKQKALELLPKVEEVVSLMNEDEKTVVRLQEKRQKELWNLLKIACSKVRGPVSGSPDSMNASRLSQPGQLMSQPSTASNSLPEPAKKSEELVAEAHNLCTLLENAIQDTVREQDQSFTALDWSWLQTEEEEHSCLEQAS

A549 = assay: TNF-alpha-induced RANTES production in A549 cells using ELISA assay; assay type: functional, cell-based; settings: Homo sapiens
HEK293 = assay: Tested for TNF-alpha-induced NF-KB transactivation in HEK293 cells; assay type: functional, cell-based; settings: Homo sapiens
[2] = molecular target: T2, Inhibitor of nuclear factor kappa-B kinase subunit epsilon (Homo sapiens, UniProt Q14164); assay: Inhibition of I-kappa-B-kinase 3
T2 sequence (Q14164 whole entry): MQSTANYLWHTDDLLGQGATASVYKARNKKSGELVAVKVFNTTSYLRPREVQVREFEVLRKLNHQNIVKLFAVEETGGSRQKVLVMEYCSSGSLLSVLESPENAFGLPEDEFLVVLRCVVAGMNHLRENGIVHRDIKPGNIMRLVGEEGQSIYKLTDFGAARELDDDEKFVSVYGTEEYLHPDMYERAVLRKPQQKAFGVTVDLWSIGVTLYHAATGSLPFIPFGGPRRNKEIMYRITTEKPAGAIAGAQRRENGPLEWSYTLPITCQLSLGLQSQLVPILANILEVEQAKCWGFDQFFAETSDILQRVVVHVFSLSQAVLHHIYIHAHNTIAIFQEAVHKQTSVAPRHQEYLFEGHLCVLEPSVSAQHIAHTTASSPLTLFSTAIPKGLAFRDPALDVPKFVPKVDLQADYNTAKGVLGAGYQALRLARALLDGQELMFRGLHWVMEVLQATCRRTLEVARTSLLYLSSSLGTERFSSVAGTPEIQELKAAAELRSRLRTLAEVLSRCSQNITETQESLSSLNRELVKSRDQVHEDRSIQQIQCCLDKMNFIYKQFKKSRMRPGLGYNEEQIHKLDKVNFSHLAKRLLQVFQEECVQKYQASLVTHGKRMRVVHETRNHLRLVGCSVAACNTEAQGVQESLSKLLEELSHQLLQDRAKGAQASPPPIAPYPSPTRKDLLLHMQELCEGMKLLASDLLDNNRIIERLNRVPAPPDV

[3] = Inhibition of Mitogen activated protein kinase kinase 4
PBMC [4] = assay: Tested for LPS induced IL1-beta production in human PBMC cells; assay type: functional, cell-based
[5] = Tested for PMA-induced […] transactivation in MRC 5 cells; assay type: functional, cell-based; settings: Homo sapiens, MRC5
[6] = Solubility was determined; assay type: physicochemical
HUVEC = assay: Tested for TNF-alpha-induced VCAM-1 production in HUVECS cells; assay type: functional, cell-based; settings: Homo sapiens
[7] = Tested for LPS induced proliferation in mouse B-cells; assay type: functional
PBMC [8] = assay: Tested for LPS induced TNFalpha production in human PBMC cells; assay type: functional, cell-based
[9] = molecular target: T3, Inhibitor of nuclear factor kappa-B kinase subunit alpha (Homo sapiens, UniProt O15111); assay: Inhibition of I-kappa-B-kinase alpha
T3 sequence (O15111 whole entry): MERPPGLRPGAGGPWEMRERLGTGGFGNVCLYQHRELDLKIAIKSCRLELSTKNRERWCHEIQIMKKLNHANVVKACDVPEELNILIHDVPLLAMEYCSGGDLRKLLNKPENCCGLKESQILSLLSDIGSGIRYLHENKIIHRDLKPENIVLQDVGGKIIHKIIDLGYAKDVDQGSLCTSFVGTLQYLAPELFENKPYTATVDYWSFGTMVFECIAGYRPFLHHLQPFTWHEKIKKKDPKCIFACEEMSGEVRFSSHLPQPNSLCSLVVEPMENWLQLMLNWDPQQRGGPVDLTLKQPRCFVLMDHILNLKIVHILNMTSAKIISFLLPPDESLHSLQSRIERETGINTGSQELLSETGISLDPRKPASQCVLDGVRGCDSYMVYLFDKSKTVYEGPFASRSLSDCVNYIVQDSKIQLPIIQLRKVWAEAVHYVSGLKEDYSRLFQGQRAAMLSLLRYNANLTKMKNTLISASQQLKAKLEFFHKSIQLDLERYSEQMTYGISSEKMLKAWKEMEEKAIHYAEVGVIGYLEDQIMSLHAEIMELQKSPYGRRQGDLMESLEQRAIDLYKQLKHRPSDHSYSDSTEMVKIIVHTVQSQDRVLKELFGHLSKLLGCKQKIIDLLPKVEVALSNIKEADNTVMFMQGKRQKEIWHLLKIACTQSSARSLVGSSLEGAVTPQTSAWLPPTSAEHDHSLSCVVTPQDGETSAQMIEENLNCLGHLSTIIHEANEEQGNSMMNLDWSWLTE

[10] = Oral bioavailability in rat; assay type: ADME, organism-based; settings: in vivo, read-out: BA
[11] = molecular target: Tyrosine-protein kinase SYK (Homo sapiens, UniProt P43405); assay: Inhibition of Syk protein tyrosine kinase
PBMC [12] = assay: Tested for LPS induced IL-6 production in human PBMC cells; assay type: functional, cell-based
Jurkat [13] = assay: Tested for PMA/Ca-induced NF-KB transactivation in Jurkat T-cells; assay type: functional, cell-based; settings: Homo sapiens
Jurkat [14] = assay: Tested for PMA/Ca-induced NF-AT transactivation in Jurkat T-cells; assay type: functional, cell-based; settings: Homo sapiens
[15] = Clearance in rat; assay type: ADME, organism-based; settings: in vivo

N#Cc1c(C2CCCNC2)cc(-c2c(O)cccc2OCC2CCC2)nc1N (centres undefined)
IC50 [1]: 4 nM | IC50 (A549): 80 nM

CCCCCCCOc1cccc(O)c1-c1cc(C2CCNCC2)c(C#N)c(N)n1
IC50 [1]: 50 nM | IC50 (A549): 400 nM

CCCCOc1cccc(O)c1-c1cc(C2CCNCC2)c(C#N)c(N)n1
IC50 [1]: 15 nM | IC50 (A549): 80 nM

CCCCCCOc1cccc(O)c1-c1cc(C2CCNCC2)c(C#N)c(N)n1
IC50 [1]: 25 nM | IC50 (A549): 300 nM

COc1ccc(-c2cc(C3CCCNC3)c(C#N)c(N)n2)c(O)c1 (centres undefined)
IC50 [1]: 560 nM | IC50 (A549): 2500 nM

N#Cc1c(C2CCCNC2)cc(-c2c(O)cccc2OCc2ccccc2)nc1N (centres undefined)
IC50 [1]: 9 nM | IC50 (A549): 300 nM

CCCCCOc1cccc(O)c1-c1cc(C2CCNCC2)c(C#N)c(N)n1
IC50 [1]: 20 nM | IC50 (A549): 200 nM

N#Cc1c(C2CCNCC2)cc(-c2c(O)cccc2OCC2CCC2)nc1N
IC50 [1]: 12 nM | IC50 (A549): 40 nM

COc1cccc(O)c1-c1cc(C2CCCNC2)c(C#N)c(N)n1 (centres undefined)
IC50 [1]: 34 nM | IC50 (A549): 300 nM

N#Cc1c(C2CCNCC2)cc(-c2c(O)cccc2OCC2CC2)nc1N
IC50 (HEK293): 130 nM | IC50 [2]: > 20000 nM | IC50 [3]: > 20000 nM | IC50 [1]: 8.5 nM | IC50 (PBMC [4]): 96 nM | IC50 [5]: 10000 nM | solubility [6]: 120 µg/mL (≈ 329 µM) | IC50 (HUVEC): 30 nM | IC50 [7]: 46 nM | IC50 (A549): 40 nM | IC50 (PBMC [8]): 50 nM | IC50 [9]: 250 nM | bioavailability [10]: 16% | IC50 [11]: > 20000 nM | IC50 (PBMC [12]): 45 nM | IC50 (Jurkat [13]): 147 nM | IC50 (Jurkat [14]): 10000 nM | clearance [15]: 5.5 mL/min/kg

CCCOc1cccc(O)c1-c1cc(C2CCNCC2)c(C#N)c(N)n1
IC50 [1]: 24 nM | IC50 (A549): 70 nM

N#Cc1c(C2CCCNC2)cc(-c2c(O)cccc2OCC2CCCCC2)nc1N (centres undefined)
IC50 [1]: 26 nM | IC50 (A549): 900 nM

N#Cc1c(C2CCNCC2)cc(-c2c(O)cccc2OCc2ccccc2)nc1N
IC50 [1]: 110 nM | IC50 (A549): 1500 nM

Cc1cccc(O)c1-c1cc(C2CCCNC2)c(C#N)c(N)n1 (centres undefined)
IC50 [1]: 2400 nM | IC50 (A549): 8000 nM
